Measurements from ChEMBL document CHEMBL1151828, “Screening of flavonoids as candidate antibiotics against Enterococcus faecalis” (J Nat Prod, 2009).
Converted amounts (≈) assume the structure as drawn.

system: not listed separately; assay: Solubility at 1 mM; type: physicochemical; settings: 1000 µM

| Compound | solubility |
| --- | --- |
| O=C1c2ccc(O)cc2OC(c2cc(O)c(O)c(O)c2)C1O (centres undefined) [DIHYDROBINETIN] | Insoluble |

system: Enterococcus faecalis; assay: Antimicrobial activity against vancomycin-resistant Enterococcus faecalis after 20 hrs by broth microdilution method; type: functional; settings: not given

| Compound | MIC [mg/L] |
| --- | --- |
| O=C1c2ccc(O)cc2OC(c2cc(O)c(O)c(O)c2)C1O (centres undefined) [DIHYDROBINETIN] | > 512 |
| O=C1CC(c2cccc(O)c2)Oc2ccccc21 (centres undefined) [3'-HYDROXYFLAVANONE] | 256 (≈ 1070 µM) |
| O=C1C[C@@H](c2ccc(O)c(O)c2)Oc2cc(O)cc(O)c21 [ERIODICTYOL] | 512 (≈ 1780 µM) |
| O=C1c2c(O)cc(O)cc2O[C@H](c2ccc(O)c(O)c2)[C@H]1O [(+)-TAXIFOLIN] | 512 (≈ 1680 µM) |
| O=C1C[C@@H](c2ccc(O)cc2)Oc2cc(O)cc(O)c21 [NARINGENIN] | 512 (≈ 1880 µM) |
| O=C1CC(c2ccccc2O)Oc2ccc(O)cc21 (centres undefined) | 256 (≈ 999 µM) |

system: Enterococcus faecalis; assay: Antimicrobial activity against Enterococcus faecalis after 20 hrs by broth microdilution method; type: functional; settings: not given

| Compound | MIC [mg/L] |
| --- | --- |
| O=C1c2ccc(O)cc2OC(c2cc(O)c(O)c(O)c2)C1O (centres undefined) [DIHYDROBINETIN] | 256 (≈ 841 µM) |
| O=C1C[C@@H](c2ccccc2)Oc2cc(O)cc(O)c21 [PINOCEMBRIN] | > 512 |
| O=C1CC(c2cccc(O)c2)Oc2ccccc21 (centres undefined) [3'-HYDROXYFLAVANONE] | 256 (≈ 1070 µM) |
| O=C1C[C@@H](c2ccc(O)c(O)c2)Oc2cc(O)cc(O)c21 [ERIODICTYOL] | 256 (≈ 888 µM) |
| O=C1c2c(O)cc(O)cc2O[C@H](c2ccc(O)c(O)c2)[C@H]1O [(+)-TAXIFOLIN] | 128 (≈ 421 µM) |
| O=C1C[C@@H](c2ccc(O)cc2)Oc2cc(O)cc(O)c21 [NARINGENIN] | 256 (≈ 940 µM) |
| O=C1CC(c2ccccc2O)Oc2ccc(O)cc21 (centres undefined) | 256 (≈ 999 µM) |
